{"source": "patent US7378111B2", "about": "“Regulation of GSK-3α activity for the treatment or prevention of Alzheimer's disease” (The Trustees of the University of Pennsylvania, priority 2002, dated 2008)", "key": {"[1]": {"test_system": "γ-secretase cleavage of APP in CHO-APP695 cells", "assay": "35S-methionine labeling, immunoprecipitation and SDS-PAGE of secreted Aβ, APP holoprotein and APP C-terminal fragments", "type": "cell-based, Chinese hamster", "details": "5 mM LiCl or 100 μM DFK-167 for 24 hours", "protocol": "To visualize the APP fragments, CHO695 cells plated on 6-well dishes were methionine-deprived for 30 minutes by incubation in methionine-free DMEM (Life Technologies, Inc., Grand Island, N.Y.) before adding 500 μCi ^35S-methionine (Perkin Elmer Life Sciences, Inc., Boston Mass.) per ml of DMEM with 5% dialyzed FBS (Invitrogen) and mg/ml L-proline for 2.5 hours. Medium was collected and cells (2 wells/sample) were rinsed twice with PBS (phosphate buffered saline), then scraped into RIPA buffer (a standard immunoprecipitation buffer, see, Harlow and Lane (eds.), In Antibodies: a laboratory manual, Cold Spring Harbor Laboratory Press, NY (1988)). Lysates were sonicated and centrifuged at 100,000×g for 20 minutes. Using protein A/G agarose beads (Santa Cruz Biotechnologies, Santa Cruz, Calif.), media was immunoprecipitated with the antibody BAN-50 (Suzuki et al., 1994) that recognizes Aβ amino acids 1-10, and cell lysates were immunoprecipitated with antibody 2493 (Lee et al., J. Biol. Chem. 278:[…] (2003)), which is a rabbit polyclonal antibody that recognizes the C-terminus of APP. Proteins were resolved by electrophoresis on 10/16% step gradient Tris-tricine polyacrylamide gels. Gels were fixed in 50% methanol+5% glycerol, dried, and exposed to a Phosphorlmager screen. […]"}, "[2]": {"test_system": "Aβ40 and Aβ42 production in CHO-APP695 cells", "assay": "Secreted Aβ40 and Aβ42 from CHO-APP695 cells, sandwich ELISA normalized to intracellular full-length APP", "type": "cell-based, Chinese hamster", "protocol": "To investigate the role of GSK-3 in the production of peptides Aβ40 and Aβ42, Chinese hamster ovary (CHO) cells stably expressing APP (CHO-APP695) were treated with lithium chloride (LiCl), which is a direct inhibitor of GSK-3α and β (Phiel et al., 2001). CHO695 cells (available commercially, e.g., American Type Culture Collection (ATCC), Manassas, Va.) were maintained in culture in MEMα+5% fetal bovine serum (FBS) (e.g., BioWhittaker, Walkersville, Md.) with added penicillin/streptomycin and glutamine. Stocks of lithium chloride were prepared in sterile water. To quantify the Aβ40 and Aβ42 secretion following treatment with LiCl, the CHO-APP695 cells were plated in 6-well dishes at a density of 5×10^5 cells per well. LiCl was added to the cells in fresh medium, and media and cells were collected 24 hours later. Aβ determinations from the media were made by sandwich ELISA in femtomoles using the method of Suzuki et al., Science 264:1336-1340 (1994).\nFor comparison purposes, the results were normalized to levels of intracellular full-length APP. APP levels were quantified by SDS-PAGE followed by western immunoblotting with the amino-terminal APP antibody Karen (Turner et al., J. Biol. Chem. 271:8966-8970 (1996)), and visualized using ^125I-labelled secondary antibodies by Phosphorlmager analysis and ImageQuant software (Amersham Biosciences Corp, Piscataway, N.J.).\nStocks of kenpaullone (Calbiochem, La Jolla, Calif.) were prepared in DMSO. Secreted labeled Aβ secreted from CHO-APP695 cells was obtained as described in the preceding examples. Drugs were added to fresh medium, and medium and cells were collected, as described above, 24 hours later. Immunoprecipitates from the medium were SDS-PAGE separated and Phosphorlmager visualized.\nStocks of roscovitine (Calbiochem) were prepared in DMSO."}, "GSK-3 [3]": {"test_system": "GSK-3", "assay": "β-catenin/Tcf-dependent luciferase reporter (OT-Luc / Lef-OT) in CHO-APP695 cells", "type": "cell-based, Chinese hamster", "parameters": "dose or concentration left out as unconfirmed", "details": "FIG. 2c", "protocol": "CHO-APP695 cells were transfected with a β-catenin-responsive reporter construct, OT-luciferase (OT-Luc) (shown in FIG. 2c as light bars), or a mutated reporter, OF-luciferase (OF-Luc) (shown in FIG. 2c as dark bars). OT-luciferase was provided by K. Kinzler and B Vogelstein.\nAfter transfection, cells were treated with lithium (at concentrations of 0.5 mM, 2.0 mM and 5 mM LiCl, respectively), kenpaullone (at concentrations of […]) or roscovitine (at concentrations of […]) for 24 hours. Cells were harvested and luciferase assays performed."}, "[4]": {"test_system": "cyclin-dependent kinases (cdks)", "details": "in vitro; cited from earlier work"}, "GSK-3 [5]": {"test_system": "GSK-3", "assay": "β-catenin protein accumulation by western blot in CHO-APP695 cells", "type": "cell-based, Chinese hamster", "details": "kenpaullone 0.5, 2.0, 5.0 μM; LiCl 0.5, 2.0, 5.0 mM; FIG. 2b", "protocol": "This was confirmed by western blot, in CHO-APP695 cells treated with kenpaullone (tested at concentrations of 0.5 μM, 2.0 μM and 5.0 μM, respectively) or lithium (0.5 mM, 2.0 mM and 5.0 mM LiCl) as shown in FIG. 2b. Roscovitine was added as a control (tested at concentrations of 0.5 μM, 2.0 μM and 5.0 μM, respectively) in FIG. 2b, as had been in the study summarized in FIG. 2a. A western blot for actin is was used as a loading control (see FIG. 2b)."}, "[6]": {"test_system": "Aβ40 and Aβ42 production in CHO-APP695 cells", "assay": "Aβ levels secreted from siRNA transfected CHO-APP695 cells", "type": "cell-based, Chinese hamster", "details": "siRNA 25 nM, 48 hours", "protocol": "(§1) The dsRNA was produced using conditions described in Elbashir et al., 2001, supra. The siRNA was transfected into the CHO-APP695 cells plated in 6-well dishes using GenePORTER transfection reagent. The siRNA (25 nM) was co-transfected with 2 μg plasmid DNA. The siRNA against pGL3-luciferase (Pp-Luc) represents control transfection. […] Following transfection, the cells were cultured and harvested 48 hours later. GSK-3α and GSK-3β protein levels were examined using an antibody that recognized both GSK-3 isoforms (Calbiochem), and western blotted as above.\nAs graphically presented in FIG. 3b, Aβ levels (Aβ40 shown in light bars; […] shown in dark bars) secreted from siRNA and transfected cells in a representative experiment, were assessed as in FIG. 1. Error bars represent standard deviation. The experiment was repeated six times with similar results. As a result, the selective reduction of GSK-3 a protein decreased Aβ40 and Aβ42 levels by 45% and 43%, respectively (FIG. 3b). Asterisks indicate a significant difference from control, as determined by one-way ANOVA (p<0.05)."}, "GSK-3α": {"test_system": "GSK-3α", "assay": "siRNA knock-down, GSK-3α protein by western blot in CHO-APP695 cells", "type": "cell-based, Chinese hamster", "protocol": "(§2) CHO-APP695 cells were transfected with short interfering RNAs (siRNAs) directed against GSK-3α and GSK-3β as follows. RNA oligonucleotides were synthesized by Dharmacon, Inc. (Lafayette, Colo.) Sequences used were:\nas §1"}, "GSK-3β": {"test_system": "GSK-3β", "assay": "siRNA knock-down, GSK-3β protein by western blot in CHO-APP695 cells", "type": "cell-based, Chinese hamster", "details": "siRNA 25 nM, harvested 48 hours after transfection", "protocol": "as §2, §1"}}, "note": "Numbered stars: 1 amine (or outer) side, 2 acyl side, 3 side chain; on linkers, the order of the positions; unused ones are H or OH. Square brackets hold non-standard residues; d marks the D form. Peptide text beside a SMILES is read from it. * marks the point of attachment. X1 = CC(N[*:1])C(=O)C(F)(F)C(=O)[*:2]; Boc = CC(C)(C)OC(=O)*"}
{"molecule": "CCC(C)C(NC(=O)C(NC(=O)OC(C)(C)C)C(C)C)C(=O)NC(C)C(=O)C(F)(F)C(=O)NC(C(=O)NC(C(=O)OC)C(C)CC)C(C)C", "note": "(stereo not drawn) [DFK-167] (Boc-VI[X1]VI-OMe; configuration not given here)", "values": [{"measurement": "steady-state levels of secreted Aβ peptides", "setting": "[1]; FIG. 1b", "result": "dramatically reduce"}, {"measurement": "accumulation of APP C-terminal fragments (CTFs)", "setting": "[1]; FIG. 1c", "result": "accumulation of APP CTFs"}]}
{"molecule": "[Cl-].[Na+]", "note": "[NaCl, sodium chloride]", "values": [{"measurement": "effect on APP processing", "setting": "[2]; 24 hours, FIG. 1a", "result": "no effect"}]}
{"molecule": "O=C1Cc2c([nH]c3ccc(Br)cc23)-c2ccccc2N1", "note": "[kenpaullone]", "values": [{"measurement": "activation of β-catenin/Tcf-dependent reporter Lef-OT", "setting": "GSK-3 [3]", "result": "activation"}, {"measurement": "concentration needed for cdk inhibition relative to GSK-3 inhibition", "setting": "[4]", "result": "at least 20 fold"}, {"measurement": "reduction of Aβ40 and Aβ42 secretion", "setting": "[2]; 2.0 μM, 24 hours", "result": 50, "unit": "%"}, {"measurement": "reduction of Aβ40 and Aβ42 secretion", "setting": "[2]; 5.0 μM, 24 hours", "result": "greater than 90%"}, {"measurement": "accumulation of β-catenin protein (GSK-3 inhibition in cells)", "setting": "GSK-3 [5]", "result": "accumulation of β-catenin protein"}]}
{"molecule": "CC[C@H](CO)Nc1nc(NCc2ccccc2)c2ncn(C(C)C)c2n1", "note": "[roscovitine]", "values": [{"measurement": "effect on Aβ40 and Aβ42", "setting": "[2]; 2.0 μM and 5.0 μM, FIG. 2a", "result": "no effect"}]}
{"molecule": "GSK-3α siRNA: dsRNA of SEQ ID NO:5 (sense) and SEQ ID NO:6 (antisense) directed against GSK-3α (sense UUCUACUCCAGUGGUGAGA; antisense UCUCACCACUGGAGUAGAA; listed as RNA, chemistry not fully specified)", "values": [{"measurement": "decrease of secreted Aβ40 level", "setting": "[6]; FIG. 3b", "result": 45, "unit": "%"}, {"measurement": "decrease of secreted Aβ42 level", "setting": "[6]; FIG. 3b", "result": 43, "unit": "%"}, {"measurement": "GSK-3α protein level", "setting": "GSK-3α; siRNA 25 nM, harvested 48 hours after transfection", "result": "selectively reduces"}]}
{"molecule": "GSK-3β directed siRNA: dsRNA of SEQ ID NO:3 (sense) and SEQ ID NO:4 (antisense) directed against GSK-3β (sense AUCUUUGGAGCCACUGAUU; antisense AAUCAGUGGCUCCAAAGAU; listed as RNA, chemistry not fully specified)", "values": [{"measurement": "GSK-3β protein level", "setting": "GSK-3β", "result": "selectively reduces"}, {"measurement": "levels of secreted Aβ40 and Aβ42", "setting": "[6]", "result": "modest increase"}]}
{"molecule": "control siRNA: siRNA against pGL3-luciferase (Pp-Luc), SEQ ID NO:1 and 2, control transfection (chain 1 CUUACGCUGAGUACUUCGA; chain 2 UCGAAGUACUCAGCGUAAG; listed as RNA, chemistry not fully specified)", "values": [{"measurement": "GSK-3 expression", "setting": "GSK-3α; control siRNA, both GSK-3 isoforms, FIG. 3a", "result": "no effect"}]}
